Test results published in patent publication US20230293433A1, “METHOD OF MANUFACTURING MICELLES FOR DRUG DELIVERY” (Wisconsin Alumni Research Foundation, priority 2022, published 2023).

Legend:
Format in all cases: physicochemical
[1] = Encapsulation efficiency and drug loading of PEG-assist micelles (centrifugation, HPLC)
Experimental: In order to prepare drug-loaded micelles, PTX (at a weight ratio of 1:2 w/w PTX: PEG4kDa-b-PLA2.2kDa corresponding to target loading of ca. 33 wt. %) was added to the mixture prior to heating to 60° C. The amount of water when PTX was present in the formulation was adjusted to aim for 4 mg/mL PTX level. […] The hydration process was performed under different conditions including rapid hydration (vortexing after addition of water) or slow hydration (a two-step hydration protocol consisting of addition of half of the target water volume followed by mixing and then addition of the rest followed by gentle mixing at 50 rpm in a rotary mixer). Micelles with the target loadings of 10 and 20 wt. % as well as 1 mg/mL PTX target level were prepared after optimizing the process parameters and used for other experiments such as stability measurement, scalability study and freeze-drying. To prepare formulations with 1 mg/mL PTX target level at 10 or 20 wt. % target loading, 1 mg PTX together with 9 or 4 mg copolymer were mixed with 170 or 75 mg PEG, respectively, and heated to 60° C. to obtain a transparent mixture. The added amounts of PEG keep the block copolymer concentration at 5.0 wt. % in the mixture. The mixture was cooled down to 40° C., incubated for 2 h followed by hydration with 1 mL DI water at 40° C. to obtain drug-loaded polymeric micelles. The samples were cooled down to room temperature and analyzed.
To measure the encapsulation efficiency, unencapsulated drug was first removed by centrifugation at 10000 g for 10 min. Following centrifugation, 50 μl of supernatant for each sample was mixed with 50 μl DI water and 400 μl acetonitrile (ACN). High performance liquid chromatography (HPLC, Prominence, Shimadzu, Japan) equipped with an autosampler, a C18 column and a UV-Vis detector was employed to measure PTX content. PTX was detected at 228 nm absorption wavelength by injecting 10 μl sample through an 80/20 ACN/water v/v mixture as the mobile phase under the flow rate of 0.5 mL/min. […]

[2] = Particle size, PdI and zeta potential by dynamic light scattering; conditions: PROTAC-loaded PEG-b-PLA micelles, PEG1000, hydrated at 40° C.
Experimental: Dynamic light scattering (DLS, nano ZS, Malvern) was used to measure particle size distribution and to investigate micelle formation. For particle size analysis, the measurements were carried out at 25° C. using water as dispersant.

[3] = Solubility of PTX in PEG-water mixtures; conditions: all examined PEG molecular weights
Excerpt: To begin with, we measured the solubility of PTX in mixtures of water and PEG of different molecular weights as a function of water content. Hydrophobic drugs such as PTX are highly soluble in liquid PEG. Addition of water, however, if surpasses a critical point, will result in precipitation of PTX (see FIG. 4). This critical point is positioned near 50.0 wt. % water content (or water:PEG 1:1 w/w ratio) for all the examined molecular weights. In other words, presence of equal or larger amount of water in a PEG-water mixture prohibits PTX solubility. Considering the PEG-assist preparation procedure, the water content always well exceeds the critical value in the final product (ca. 85.0, 92.0 or 96.0 wt. % water content at 1 mg/mL PTX level for 10, 20 or 33 wt. % target loading, respectively). Therefore, PEG-water mixture cannot play any solubilization role for PTX in the proposed system, and the drug is expected to mainly reside in the PEG-b-PLA micelles' core.

[4] = Stability of micelle formulations at room temperature; conditions: 20 wt. % target loading, 1 mg/mL, PEG1000, 40° C.
Experimental: We considered stability, applicability to other drugs and copolymers, scalability and long-term preservation as four more criteria to evaluate the PEG-assist method. The stability of PTX-loaded PEG-b-PLA micelles prepared at 20 wt. % target loading with 1 mg/mL target PTX level is shown in FIG. 9A. All the samples were prepared at saturation temperature i.e. 40° C. […] In other words, PTX remains soluble after 8 hours incubation at room temperature without any significant loss for any of the PEG molecular weights (p>0.05). […] We observed that all the samples were completely transparent without any visual precipitation within the 8 h time frame. […] The inherent incompatibility of PTX with the micelle core can be alleviated using acyl and ester prodrug strategies for physical loading purposes [Tam, Y. T., et al., “Poly (ethylene glycol)-block-poly (d, 1-lactic acid) micelles containing oligo (lactic acid) 8-paclitaxel prodrug: In Vivo conversion and antitumor efficacy” J. Control. Rel., 2019. 298:186-193; Tam, Y. T., J. Gao, and G. S. Kwon, “Oligo (lactic acid) n-paclitaxel prodrugs for poly (ethylene glycol)-block-poly (lactic acid) micelles: loading, release, and backbiting conversion for anticancer activity” J. Am. […]
The samples in Example 16, were monitored for stability after reconstitution. The particle size and PdI was measured at different time points (1, 2 and 7 days).

[5] = PROTAC-loaded PEG-b-PLA micelles, PEG1000, hydrated at 40° C.

## COc1cc2ncnc(Nc3ccc(F)c(Cl)c3)c2cc1OCCCCCOCCOCCC(=O)N[C@H](C(=O)N1C[C@H](O)C[C@H]1C(=O)NCc1ccc(-c2scnc2C)cc1)C(C)(C)C [Gefitinib-based PROTAC3]
[1]; [5]
  % Drug Loading: 17.2%
  % Encapsulation Efficiency: 83.0%
[2]
  PdI: 0.208
  Size: 34.1 ± 6.5 nm
  Zeta potential: 3.39 ± 14.2 mV

## CC(=O)O[C@H]1C(=O)[C@@]2(C)[C@H]([C@H](OC(=O)c3ccccc3)[C@]3(O)C[C@H](OC(=O)[C@H](O)[C@@H](NC(=O)c4ccccc4)c4ccccc4)C(C)=C1C3(C)C)[C@]1(OC(C)=O)CO[C@@H]1C[C@@H]2O [PTX, Paclitaxel]
[3]
  critical water content of PEG-water mixture above which PTX precipitates: ~50.0 wt. %

## C=CCNC1=C2C[C@@H](C)C[C@H](OC)[C@H](O)[C@@H](C)/C=C(\C)[C@H](OC(N)=O)[C@@H](OC)/C=C\C=C(/C)C(=O)NC(=CC1=O)C2=O [Sample 17AAG]
[1]; 17AAG, 20 wt. % target loading, 1 mg/mL, PEG1000, 40° C.
  encapsulation efficiency: 80.2±2.1%
[4]
  time stable at room temperature: at least 24 h
